Source: publication PMC10954796, “Post-translational modifications of beta-amyloid alter its transport in the blood-brain barrier in vitro model” (Frontiers in Molecular Neuroscience, 2024)
Ends that are not written are not given here.

Target: T1, sRAGE (Homo sapiens, UniProt Q15109)
T1 construct: the soluble extracellular part of RAGE (sRAGE); purchased Abcam
Assay: Microscale thermophoresis, interaction with sRAGE
Assay type: binding
Conditions: MST, Monolith NT.115; 50 nM RED-tris-NTA-labeled His-tag sRAGE; peptide 6.1 nM to 200 μM; 4% DMSO, 20% glycerol; mean ± SD, n = 4–5; read-out: dissociation constant (Kd) with sRAGE

T1 sequence (Q15109 23-342 limits assumed): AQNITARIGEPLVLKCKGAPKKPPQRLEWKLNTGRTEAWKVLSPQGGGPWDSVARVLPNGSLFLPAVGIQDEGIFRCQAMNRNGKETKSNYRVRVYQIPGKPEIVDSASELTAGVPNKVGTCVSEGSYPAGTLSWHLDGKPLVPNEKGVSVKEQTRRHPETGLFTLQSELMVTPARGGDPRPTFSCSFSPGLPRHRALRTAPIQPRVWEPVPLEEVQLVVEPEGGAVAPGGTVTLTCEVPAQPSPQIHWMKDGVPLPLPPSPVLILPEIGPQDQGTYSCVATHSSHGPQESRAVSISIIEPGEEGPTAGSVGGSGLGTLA

Question: Which Kd does the source give for LVFFAEDVGSNKGAIIGLMVGGVVIA [Aβ17 − 42] here?
Answer: The Kd was 10 ± 5 µM.
